# Test results from patent US6855710B2, “Substituted indolines with an inhibitory effect on various kinases and complexes of CDKs” (Boehringer Ingelheim Pharma KG, priority 1998, dated 2005).
row,melting point,SMILES
1,273 °C,"O=C1Nc2ccc([N+](=O)[O-])cc2/C1=C(/Nc1ccc(CN2CCOCC2)cc1)c1ccccc1 [Example 118, (Z)-3-[1-(4-morpholinomethyl-phenylamino)-1-phenyl-methylidene]-5-nitro-2-indolinone]"
2,255 to 258 °C,"CN(C)C(=O)CN(c1ccc(N/C(=C2\C(=O)Nc3ccccc32)c2ccccc2)cc1)S(=O)(=O)c1ccccc1 [Example 205, (Z)-3-{1-[4-(N-dimethylaminocarbonylmethyl-N-phenylsulphonyl-amino)-phenylamino]-1-phenyl-methylidene}-2-indolinone]"
3,233 to 235 °C,"CN(C)CCNS(=O)(=O)c1ccc(N/C(=C2\C(=O)Nc3ccccc32)c2ccccc2)cc1 [Example 399, (Z)-3-{1-[4-(2-dimethylamino-ethylaminosulphonyl)-phenylamino]-1-phenyl-methylidene}-2-indolinone]"
4,159 to 161 °C,"CN(C)C(=O)CN(c1ccc(N/C(=C2\C(=O)Nc3ccc([N+](=O)[O-])cc32)c2ccccc2)cc1)S(=O)(=O)Cc1ccccc1 [Example 303, (Z)-3-{1-[4-(N-(dimethylaminocarbonylmethyl)-N-benzylsulphonyl-amino)-phenylamino]-1-phenyl-methylidene}-5-nitro-2-indolinone]"
5,117 °C,"CCS(=O)(=O)N(CC(=O)N(C)CCN(C)C)c1ccc(N/C(=C2\C(=O)Nc3ccc([N+](=O)[O-])cc32)c2ccccc2)cc1 [Example 296, (Z)-3-{1-[4-(N—((N-(2-dimethylaminoethyl)-N-methyl-amino)-carbonylmethyl)-N-ethylsulphonyl-amino)-phenylamino]-1-phenyl-methylidene}-5-nitro-2-indolinone]"
6,269 to 270 °C (dec.),"CN(C)CCCN(C)S(=O)(=O)c1ccc(N/C(=C2\C(=O)Nc3ccc([N+](=O)[O-])cc32)c2ccccc2)cc1 [Example 404, (Z)-3-{1-[4-(N-(3-dimethylaminopropyl)-N-methyl-aminosulphonyl)-phenylamino]-1-phenyl-methylidene}-5-nitro-2-indolinone]"
7,318 to 320 °C (dec.),"CC(=O)Nc1cccc(N/C(=C2\C(=O)Nc3ccc([N+](=O)[O-])cc32)c2ccccc2)c1 [Example 89, (Z)-3-[1-(3-acetylamino-phenylamino)-1-phenyl-methylidene]-5-nitro-2-indolinone]"
8,214 to 216 °C,"O=C(O)Cc1ccc(N/C(=C2\C(=O)Nc3ccccc32)c2ccccc2)cc1 [Example 16, (Z)-3-[1-(4-carboxymethyl-phenylamino)-1-phenyl-methylidene]-2-indolinone]"
9,297 to 299 °C,"Br.COCCNCCc1ccc(N/C(=C2\C(=O)Nc3ccc([N+](=O)[O-])cc32)c2ccccc2)cc1 [Example 257, (Z)-3-{1-[4-(2-(2-methoxyethylamino)-ethyl)-phenylamino]-1-phenyl-methylidene}-5-nitro-2-indolinone-hydrobromide]"
10,274 to 276 °C,"Cc1ccc(/C(Nc2ccc(CN(C)C)cc2)=C2/C(=O)Nc3ccc([N+](=O)[O-])cc32)cc1 [Example 212, (Z)-3-[1-(4-dimethylaminomethyl-phenylamino)-1-(p-tolyl)-methylidene]-5-nitro-2-indolinone]"
11,206 to 208 °C,"COc1cccc(/C(Nc2ccc(CN(C)C)cc2)=C2/C(=O)Nc3ccc([N+](=O)[O-])cc32)c1 [Example 218, (Z)-3-[1-(4-dimethylaminomethyl-phenylamino)-1-(3-methoxyphenyl)-methylidene]-5-nitro-2-indolinone]"
12,290 to 292 °C,CN(C)CC(=O)N(C)c1ccc(N/C(=C2\C(=O)Nc3ccccc32)c2ccccc2)cc1.Cl
13,160 to 162 °C,"CN(C)C(=O)CN(c1ccc(N/C(=C2\C(=O)Nc3ccc([N+](=O)[O-])cc32)c2ccccc2)cc1)S(=O)(=O)c1ccccc1 [Example 209, (Z)-3-{1-[4-(N-dimethylaminocarbonylmethyl-N-phenylsulphonyl-amino)-phenylamino]-1-phenyl-methylidene}-5-nitro-2-indolinone]"
14,234 to 236 °C,"CN(C)CC(=O)Nc1ccc(N/C(=C2\C(=O)Nc3ccccc32)c2ccccc2)cc1 [Example 41, (Z)-3-[1-(4-dimethylaminomethylcarbonylamino-phenylamino)-1-phenyl-methylidene]-2-indolinone]"
15,309 to 311 °C,"O=C1Nc2ccc([N+](=O)[O-])cc2/C1=C(/Nc1ccc(CN2CCCCC2)cc1)c1ccc(Cl)cc1 [Example 443, (Z)-3-[1-(4-piperidinomethyl-phenylamino)-1-(4-chlorophenyl)-methylidene]-5-nitro-2-indolinone]"
16,224 to 226 °C,"Cc1cccc(/C(Nc2ccc(CN(C)C)cc2)=C2/C(=O)Nc3ccccc32)c1 [Example 213, (Z)-3-[1-(4-dimethylaminomethyl-phenylamino)-1-(m-tolyl)-methylidene]-2-indolinone]"

row,melting point,SMILES
1,161 °C,"CN(C)CCN(c1cccc(N/C(=C2\C(=O)Nc3ccccc32)c2ccc(CN)cc2)c1)S(C)(=O)=O [Example 422, (Z)-3-{1-[3-(N-(2-dimethylaminoethyl)-N-methylsulphonyl-amino)-phenylamino]-1-(4-aminomethyl-phenyl)-methylidene}-2-indolinone]"
2,227 to 230 °C,"O=C1Nc2ccccc2/C1=C(/Nc1ccccc1C(=O)O)c1ccccc1 [Example 8, (Z)-3-[1-(2-carboxy-phenylamino)-1-phenyl-methylidene]-2-indolinone]"
3,306 to 308 °C,"CN(c1ccc(N/C(=C2\C(=O)Nc3ccc([N+](=O)[O-])cc32)c2ccccc2)cc1)S(C)(=O)=O [Example 197, (Z)-3-{1-[4-(N-methyl-N-methylsulphonyl-amino)-phenylamino]-1-phenyl-methylidene}-5-nitro-2-indolinone]"
4,178 to 180 °C,"CCCS(=O)(=O)N(CC(=O)N(C)C)c1ccc(N/C(=C2\C(=O)Nc3ccccc32)c2ccccc2)cc1 [Example 305, (Z)-3-{1-[4-(N-(dimethylaminocarbonylmethyl)-N-propylsulphonyl-amino)-phenylamino]-1-phenyl-methylidene}-2-indolinone]"
5,196 to 198 °C,"NC(CCO)(CCO)c1ccc(N/C(=C2\C(=O)Nc3ccc([N+](=O)[O-])cc32)c2ccccc2)cc1 [Example 240, (Z)-3-{1-[4-(Bis-(2-hydroxyethyl)-aminomethyl)-phenylamino]-1-phenyl-methylidene}-5-nitro-2-indolinone]"
6,195 to 198 °C,CNCC(=O)NCc1ccc(N/C(=C2\C(=O)Nc3ccc([N+](=O)[O-])cc32)c2ccccc2)cc1.Cl
7,130 to 133 °C,"CCOC(=O)CNCc1cccc(N/C(=C2\C(=O)Nc3ccc([N+](=O)[O-])cc32)c2ccccc2)c1 [Example 111, (Z)-3-[1-(3-ethoxycarbonylmethylaminomethyl-phenylamino)-1-phenyl-methylidene]-5-nitro-2-indolinone]"
8,250 to 252 °C,"CNCCc1ccc(N/C(=C2\C(=O)Nc3ccc([N+](=O)[O-])cc32)c2ccccc2)cc1 [Example 254, (Z)-3-{1-[4-(2-methylamino-ethyl)-phenylamino]-1-phenyl-methylidene}-5-nitro-2-indolinone]"
9,334 to 336 °C (dec.),"O=C1Nc2ccc([N+](=O)[O-])cc2/C1=C(/Nc1ccccc1)c1ccc(CN2C(=O)c3ccccc3C2=O)cc1 [Example 153, (Z)-3-[1-phenylamino-1-(4-phthalimidomethyl-phenyl)-methylidene]-5-nitro-2-indolinone]"
10,244 to 247 °C,"CCOC(=O)CN(C(C)=O)c1ccc(N/C(=C2\C(=O)Nc3ccccc32)c2ccccc2)cc1 [Example 352, (Z)-3-{1-[4-(N-ethoxycarbonylmethyl-N-acetyl-amino)-phenylamino]-1-phenyl-methylidene}-2-indolinone]"
11,280 to 282 °C,"CC(C)C(=O)N(CCN(C)C)c1ccc(N/C(=C2\C(=O)Nc3ccccc32)c2ccccc2)cc1 [Example 342, (Z)-3-{1-[4-(N-(2-dimethylaminoethyl)-N-isopropylcarbonyl-amino)-phenylamino]-1-phenyl-methylidene}-2-indolinone]"
12,232 °C,"CCC(=O)N(CCN1CCOCC1)c1ccc(N/C(=C2\C(=O)Nc3ccc([N+](=O)[O-])cc32)c2ccccc2)cc1 [Example 335, (Z)-3-{1-[4-(N-(2-morpholinoethyl)-N-propionyl-amino)-phenylamino]-1-phenyl-methylidene}-5-nitro-2-indolinone]"
13,287 to 288 °C,"O=C1Nc2ccc([N+](=O)[O-])cc2/C1=C(/Nc1ccc(CCN2CCC(C(=O)O)CC2)cc1)c1ccccc1 [Example 263, (Z)-3-{1-[4-(2-(4-carboxypiperidino)-ethyl)-phenylamino]-1-phenyl-methylidene}-5-nitro-2-indolinone]"
14,219 °C,"CCCC(=O)N(CCN1CCOCC1)c1ccc(N/C(=C2\C(=O)Nc3ccccc32)c2ccccc2)cc1 [Example 351, (Z)-3-{1-[4-(N-(2-morpholinoethyl)-N-propylcarbonyl-amino)-phenylamino]-1-phenyl-methylidene}-2-indolinone]"
15,225 to 227 °C,"CCCCS(=O)(=O)N(CCN(C)C)c1ccc(N/C(=C2\C(=O)Nc3ccccc32)c2ccccc2)cc1 [Example 453, (Z)-3-[1-(4-(N-(2-dimethylaminoethyl)-N-butylsulphonyl-amino)-phenylamino)-1-phenyl-methylidene]-2-indolinone]"

row,SMILES,melting point
1,"CC(C)(C)OC(=O)NCC(=O)NCc1ccc(N/C(=C2\C(=O)Nc3ccccc32)c2ccccc2)cc1 [Example 57, (Z)-3-[1-(4-tert.butoxycarbonylaminomethylcarbonylaminomethyl-phenylamino)-1-phenyl-methylidene}-2-indolinone]",218 to 220 °C
2,"CC(C)(C)OC(=O)NCC(=O)Nc1ccc(N/C(=C2\C(=O)Nc3ccccc32)c2ccccc2)cc1 [Example 34, (Z)-3-[1-(4-tert.butoxycarbonylaminomethylcarbonylamino-phenylamino)-1-phenyl-methylidene]-2-indolinone]",243 to 244 °C (dec.)
